Where two headings read alike, the source gives them in different places.
Tests used:
[1] = biological target: T1, aldose reductase (Bos taurus, UniProt P16116); test: Inhibition of aldose reductase enzyme activity (partially purified enzyme from calf lens); assay type: biochemical; conditions: for inhibition at 100 µM: 10^-4 M; for inhibition at 10 µM: 10^-5 M; for inhibition at 1 µM: 10^-6 M; for inhibition at 1 µM / inhibition at 0.1 µM: low negative values not significant; for inhibition at 0.1 µM: 10^-7 M
T1 construct: partially purified aldose reductase enzyme obtained from calf lens; from tissue; host or cells: calf lens
Method: The spiro-thienohydantoins of Examples 1 through 5 were tested for their ability to reduce or inhibit aldose reductase enzyme activity, following the procedure described in U.S. Pat. No. 3,821,383 and based on the procedure of Hayman et. al., Journal of Biological Chemistry, 240, 877 (1965). The substrate employed was partially purified aldose reductase enzyme obtained from calf lens. The results obtained with each compound at a concentration of 10^-4 M are expressed as percent inhibition of enzyme activity.
The test of Example 6 was repeated at different concentrations of the compound under test, namely 10^-4 M, 10^-5 M, 10^-6 M, and 10^-7 M.
In this test, values below 20 are not always experimentally and statistically significant.

[2] = test system: sorbitol accumulation in the sciatic nerve of streptozotocinized (i.e., diabetic) rats; test: Inhibition of sorbitol accumulation in the sciatic nerve of streptozotocinized (diabetic) rats; assay type: in vivo, rat; conditions: measured 27 hours after induction, vs untreated
Method: The compounds of Examples 4 and 5 were tested for their ability to reduce or inhibit sorbitol accumulation in the sciatic nerve of streptozotocinized (i.e., diabetic) rats by the procedure essentially described in U.S. Pat. No. 3,821,383. In the present study, the amount of sorbitol accumulation in the sciatic nerves was measured 27 hours after induction of diabetes. The compounds were administered orally at the dose levels indicated at 4, 8 and 24 hours following the administration of streptozotocin. The results obtained in this manner are presented below in terms of percent inhibition (%) afforded by the test compound as compared to the case where no compound was administered (i.e., the untreated animal where sorbitol levels normally rise from approximately 50-100 mM/g. tissue to as high as 400 mM/g. tissue in the 27-hour test period): […]

[3] = Example 6 test, calf lens enzyme, read-out: % Inhibition at 10^-4 M
[4] = Example 7 repeat test, values below 20 not always significant, read-out: % Inhibition
[5] = Example 7 repeat test, values below 20 not always significant

| inhibition at 100 µM [1, 3] [%] | inhibition at 100 µM [1, 4] [%] | inhibition at 10 µM [1, 5] [%] | inhibition at 1 µM [1, 5] [%] | inhibition at 0.1 µM [1, 5] [%] | SMILES | % Inhibition (sorbitol accumulation in sciatic nerve) ([2]; 2.5 mg/kg orally at 4, 8 and 24 hours after streptozotocin) [%] | % Inhibition (sorbitol accumulation in sciatic nerve) ([2]; 25 mg/kg orally at 4, 8 and 24 hours after streptozotocin) [%] |
| --- | --- | --- | --- | --- | --- | --- | --- |
| 46 | – | – | – | – | O=C1NC(=O)C2(CCc3cscc32)N1 (stereo not shown) [Example 3] | – | – |
| 52 | – | – | – | – | O=C1NC(=O)C2(CCCc3sccc32)N1 (stereo not shown) [Example 5, 6,7-dihydro-spiro[benzo(b)thiophene-4(5H),4'-imidazolidine]-2',5'-dione] | – | 56 |

The next lines start with the molecule.

| SMILES | inhibition at 100 µM [1, 3] [%] | inhibition at 100 µM [1, 4] [%] | inhibition at 10 µM [1, 5] [%] | inhibition at 1 µM [1, 5] [%] | inhibition at 0.1 µM [1, 5] [%] | % Inhibition (sorbitol accumulation in sciatic nerve) ([2]; 2.5 mg/kg orally at 4, 8 and 24 hours after streptozotocin) [%] | % Inhibition (sorbitol accumulation in sciatic nerve) ([2]; 25 mg/kg orally at 4, 8 and 24 hours after streptozotocin) [%] |
| --- | --- | --- | --- | --- | --- | --- | --- |
| O=C1NC(=O)C2(CCc3c(Cl)sc(Cl)c32)N1 (stereo not shown) [Example 1] | 83 | 88 | 67 | 12 | -7 | – | – |
| O=C1NC(=O)C2(CCc3c2csc3Cl)N1 (stereo not shown) [Example 2] | 95 | 35 | 67 | -12 | 21 | – | – |
| O=C1NC(=O)C2(CCc3sc(Cl)cc32)N1 (stereo not shown) [Example 4] | 80 | 75 | 55 | 18 | 15 | 20 | – |
